Source: paper PMC7013731, “Elucidating the Structural Basis of the Intracellular pH Sensing Mechanism of TASK-2 K2P Channels” (International Journal of Molecular Sciences, 2020)

Experiments:
TASK-2 = target: T1, TASK-2 (Mus musculus, UniProt Q9JK62); assay: whole-cell patch clamp, transfected HEK-293 cells; format: cell-based
T1 construct: gene Kcnk5; full-length TASK-2 plasmid transiently expressed in HEK-293 cells with separate GFP marker plasmid; homodimer
T1 sequence (Q9JK62 1-502): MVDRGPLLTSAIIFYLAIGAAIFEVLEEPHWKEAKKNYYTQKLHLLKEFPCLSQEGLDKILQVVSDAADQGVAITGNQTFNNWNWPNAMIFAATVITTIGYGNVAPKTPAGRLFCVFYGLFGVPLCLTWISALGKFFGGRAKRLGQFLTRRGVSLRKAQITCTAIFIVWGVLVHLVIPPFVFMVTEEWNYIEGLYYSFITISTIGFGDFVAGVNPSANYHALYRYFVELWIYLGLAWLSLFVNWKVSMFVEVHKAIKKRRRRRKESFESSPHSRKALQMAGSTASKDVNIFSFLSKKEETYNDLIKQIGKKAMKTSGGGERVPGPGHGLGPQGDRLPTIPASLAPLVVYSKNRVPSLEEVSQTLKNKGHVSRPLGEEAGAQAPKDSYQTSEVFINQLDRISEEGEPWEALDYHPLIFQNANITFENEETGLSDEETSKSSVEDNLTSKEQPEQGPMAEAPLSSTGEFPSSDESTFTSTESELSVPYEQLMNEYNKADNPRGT

Lys245 = Lys245 (UniProt position 245, LFVNWKVSMFV); assay: electrophysiology; conditions: wild-type channel, gating by intracellular pH (pHi); cited from earlier work

IC50 (TASK-2) | Molecule | pKa (Lys245)
17 ± 5 µM | NCCC(Oc1ccc(C(F)(F)F)cc1)c1ccccc1 (racemic) [norfluoxetine] | –
– | TASK-2 (K2P5.1, TWIK-related acid-sensitive K+ channel 2) (Mus musculus (inferred from GenBank AF319542; species not stated in the article)) | ~8.0
